Values quoted from earlier work as cited in US20260276655A1, “BIOMARKERS OF AMYOTROPHIC LATERAL SCLEROSIS AND USES THEREOF” (The Methodist Hospital, priority 2023, published 2026).

Assays:
[1] = normal physiological conditions
ALS patients = conditions: administered to ALS patients

| half-life [1] | SMILES | outcome of phase 3 clinical trial (ALS patients) |
| --- | --- | --- |
| less than 2 minutes | CCCCCC(O)/C=C/C=O (centres unmarked) [4-HNE, 4-hydroxynonenal] |  |
|  | CO/N=C(\C(=O)N[C@@H]1C(=O)N2C(C(=O)O)=C(CSc3nc(=O)c(=O)[nH]n3C)CS[C@H]12)c1csc(N)n1 [ceftriaxone, (6R,7R)-7-[[(2Z)-2-(2-amino-1,3-thiazol-4-yl)-2-methoxyiminoacetyl]amino]-3-[(2-methyl-5,6-dioxo-1H-1,2,4-triazin-3-yl)sulfanylmethyl]-8-ox o-5-thia-1-azabicyclo[4.2.0]oct-2-ene-2-carboxylic acid] | failed |
